Data from article PMC2363649, “MDR1 causes resistance to the antitumour drug miltefosine” (British Journal of Cancer, 2001).

Experiments:
ABC transporter YvcC = target: T1, ABC transporter YvcC (Bacillus subtilis, UniProt O06967); assay: binding Kd (data not shown; method not stated)
T1 construct: gene bmrA
T1 sequence (O06967 1-589): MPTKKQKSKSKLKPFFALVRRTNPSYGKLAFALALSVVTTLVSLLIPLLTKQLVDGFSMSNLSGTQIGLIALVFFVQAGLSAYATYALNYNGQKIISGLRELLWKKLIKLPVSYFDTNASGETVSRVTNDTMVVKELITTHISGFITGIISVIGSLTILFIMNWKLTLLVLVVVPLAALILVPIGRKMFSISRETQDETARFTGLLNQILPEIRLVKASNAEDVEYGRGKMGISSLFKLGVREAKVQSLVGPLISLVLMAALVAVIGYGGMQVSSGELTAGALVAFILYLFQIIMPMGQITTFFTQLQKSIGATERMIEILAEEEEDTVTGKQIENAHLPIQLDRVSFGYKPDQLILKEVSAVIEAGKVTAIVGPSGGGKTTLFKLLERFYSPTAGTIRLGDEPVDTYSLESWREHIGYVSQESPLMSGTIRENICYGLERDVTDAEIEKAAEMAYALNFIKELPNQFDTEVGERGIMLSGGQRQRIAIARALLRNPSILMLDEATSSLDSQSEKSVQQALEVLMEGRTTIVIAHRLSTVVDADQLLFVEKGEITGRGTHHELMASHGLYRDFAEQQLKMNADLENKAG

P-glycoprotein (PGP) = target: T2, P-glycoprotein (PGP) (Cricetulus griseus, UniProt P21448); assay: MIANS-PGP fluorescence quenching titration; format: binding
T2 construct: gene ABCB1; highly purified PGP from CHR B30 cells, labelled with MIANS at two conserved cysteine residues within the Walker A motifs
T2 sequence (P21448 whole entry): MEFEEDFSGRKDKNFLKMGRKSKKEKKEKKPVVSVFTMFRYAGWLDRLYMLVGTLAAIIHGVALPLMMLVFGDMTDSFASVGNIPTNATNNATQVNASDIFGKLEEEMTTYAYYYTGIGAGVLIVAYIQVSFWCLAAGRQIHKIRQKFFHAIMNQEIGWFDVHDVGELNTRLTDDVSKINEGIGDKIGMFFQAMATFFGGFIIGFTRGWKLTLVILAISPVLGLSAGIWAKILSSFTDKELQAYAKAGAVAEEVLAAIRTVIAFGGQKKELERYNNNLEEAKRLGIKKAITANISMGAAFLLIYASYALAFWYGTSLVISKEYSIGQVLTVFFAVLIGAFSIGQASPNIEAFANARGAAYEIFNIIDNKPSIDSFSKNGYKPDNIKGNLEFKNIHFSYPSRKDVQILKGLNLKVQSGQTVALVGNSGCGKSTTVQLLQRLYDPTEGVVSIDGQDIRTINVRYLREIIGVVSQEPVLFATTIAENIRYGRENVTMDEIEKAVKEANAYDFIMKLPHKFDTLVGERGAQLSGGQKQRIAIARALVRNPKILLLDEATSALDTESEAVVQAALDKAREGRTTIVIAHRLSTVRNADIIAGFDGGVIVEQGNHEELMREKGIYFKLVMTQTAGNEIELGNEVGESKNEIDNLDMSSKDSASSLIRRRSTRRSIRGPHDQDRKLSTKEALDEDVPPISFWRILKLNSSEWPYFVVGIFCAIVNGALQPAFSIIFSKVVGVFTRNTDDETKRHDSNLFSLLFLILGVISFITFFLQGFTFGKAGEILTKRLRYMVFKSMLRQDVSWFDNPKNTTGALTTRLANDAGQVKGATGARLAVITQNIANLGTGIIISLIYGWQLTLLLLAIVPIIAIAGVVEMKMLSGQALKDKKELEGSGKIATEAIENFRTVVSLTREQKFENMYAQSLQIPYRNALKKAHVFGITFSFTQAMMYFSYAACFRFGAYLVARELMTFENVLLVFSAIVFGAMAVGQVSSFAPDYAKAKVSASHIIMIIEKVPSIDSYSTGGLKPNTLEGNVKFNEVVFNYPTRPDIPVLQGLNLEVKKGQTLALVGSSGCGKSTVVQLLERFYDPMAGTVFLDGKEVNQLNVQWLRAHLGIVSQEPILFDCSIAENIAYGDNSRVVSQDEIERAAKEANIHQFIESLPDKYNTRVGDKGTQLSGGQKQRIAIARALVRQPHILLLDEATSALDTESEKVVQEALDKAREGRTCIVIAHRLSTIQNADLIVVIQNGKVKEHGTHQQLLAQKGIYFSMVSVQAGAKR

`CCCCCCCCCCCCCCCCOP(=O)([O-])OCC[N+](C)(C)C` [miltefosine] was tested, and the Kd (ABC transporter YvcC) was 2 to 3 µM and the Kd (P-glycoprotein (PGP)) was roughly 7 µM.
